m = 2'-O-methyl; r = 2'-OH (RNA)
Columns and labels:
[1] = system: TLR7/8; experiment: Cytokine induction in human PBMCs by immunostimulatory RNA, alone or co-formulated with modified ssRNA in the same SNALP/lipid particle; format: cell-based; conditions: for IFN-α production induced by the RNA alone: lipid-formulated RNA alone, doses 0.1 to 3 μg/ml; for immunostimulatory effects (IFN-α induction) of ApoB antisense ssRNA when co-formulated / IFN-α induction by NP ssRNA when co-formulated: 1:1 molar ratio; for IFN-α levels induced by β-gal antisense ssRNA when co-encapsulated / IL-6 levels induced by β-gal antisense ssRNA when co-encapsulated: equimolar amounts in the same SNALP; for cytokine production from human PBMCs when co-formulated with immunostimulatory RNA: co-formulated with immunostimulatory ssRNA; for IFN-α induction by NP ssRNA when co-formulated: 0.5 μg/ml NP ssRNA
Description: (§1) All RNA molecules used in this study were heated at 90° C. for 3 min. and then placed at 37° C. for 60 min. Non-denaturing PAGE analysis on a 20% polyacrylamide gel was performed to confirm that ssRNA molecules were intact and that no duplexes had formed upon heating. The RNA molecules were encapsulated in a SNALP formulation comprising PEG-cDMA:DLinDMA:cholesterol:DSPC in a 2:40:48:10 mol % ratio (2:40 SNALP), prepared using a syringe press process.
(§2) Fresh human peripheral blood mononuclear cells (PBMCs) were isolated and seeded at about 3×10^5 cells/well in a total volume of 180 μl. Next, 20 μl of the appropriate SNALP diluted in PBS or 10 μl of naked TLR agonist were added to the PBMCs. For time course experiments, PBMCs were pretreated with UmodS ssRNA or a control and the appropriate naked TLR agonist was added at 0, 0.5, or 2 hours after pretreatment. When the SNALP and naked TLR agonist were added separately, the SNALP was added first followed by the naked TLR agonist. At t=24 hr., the cell supernatant was harvested and IFN-α and/or IL-6 levels were determined using ELISA.
The ssRNA molecules used in this study were heated at 90° C. for 3 min. and then placed at 37° C. for 60 min to disrupt any potential secondary structure. Non-denaturing PAGE analysis on a 20% polyacrylamide gel was performed to confirm that ssRNA molecules were intact and that no duplexes had formed upon heating. siRNA duplexes were prepared by annealing equimolar concentrations of two deprotected and desalted ssRNA oligonucleotides using standard procedures. Formation of annealed siRNA duplexes was confirmed by non-denaturing PAGE analysis on a 20% polyacrylamide gel. The RNA molecules were encapsulated in a 2:40 SNALP formulation prepared using a syringe press process.
Fresh human peripheral blood mononuclear cells (PBMCs) were isolated and seeded at about 3×10^5 cells/well in a total volume of 180 μl. Next, 20 μl of the appropriate SNALP diluted in PBS were added to the PBMCs. At t=24 hr., the cell supernatant was harvested and IFN-α and/or IL-6 levels were determined using an enzyme-linked immunosorbent assay (ELISA). For example, IFN-α and IL-6 levels can be measured using a sandwich ELISA kit available from PBL Biomedical (Piscataway, N.J.) and eBioscience (San Diego, Calif.), respectively.
(§3) Lipid Encapsulation of RNA and ODN. RNA or ODN were encapsulated in liposomes by a process of spontaneous vesicle formation as described in Judge et al., supra, and Jeffs et al., Pharm. Res., 22:362-372 (2005).
(§4) Cell Isolation and Culture. Human PBMCs were isolated from whole blood of healthy donors by a standard Ficoll-Hypaque density centrifugation. Blood was diluted 1:1 with PBS, layered onto Ficoll-Paque Plus, and centrifuged at 1600 RPM for 30 min. PBMCs were washed in PBS twice followed by resuspension in complete media (RPMI 1640, 10% heat inactivated FBS, 2 mM L-glutamine, and 1% penicillin/streptomycin). PBMCs were plated at 2.5×10^5 cells/well in 96 well plates for cytokine induction assays.
(§5) Loxoribine (InvivoGen; San Diego, Calif.), polyIC (Sigma-Aldrich; St. Louis, Mo.), and formulated nucleic acids were diluted in PBS and added to either human PBMC or Flt3L DC cultures. Cells were incubated 24 h at 37° C. before supernatants were assayed for cytokines by ELISA.
(§6) Cytokine ELISA. All cytokines were quantified using sandwich ELISA kits according to the manufacturer's instructions. These were mouse and human IFN-α (PBL Biomedical; Piscataway, N.J.) and IL-6 (eBioscience; San Diego, Calif.).

[2] = biological target: T1, TLR7 (Homo sapiens, UniProt Q9NYK1); experiment: Loxoribine (TLR7 agonist)-induced IFN-α/IL-6 production in human PBMCs; format: cell-based; conditions: SNALP-encapsulated ssRNA added before naked agonist, supernatant at 24 hr, ELISA
T1 construct: Human PBMCs were isolated from whole blood of healthy donors; endogenous in cells; host or cells: primary human PBMCs from healthy donors
T1 sequence (Q9NYK1 27-1049): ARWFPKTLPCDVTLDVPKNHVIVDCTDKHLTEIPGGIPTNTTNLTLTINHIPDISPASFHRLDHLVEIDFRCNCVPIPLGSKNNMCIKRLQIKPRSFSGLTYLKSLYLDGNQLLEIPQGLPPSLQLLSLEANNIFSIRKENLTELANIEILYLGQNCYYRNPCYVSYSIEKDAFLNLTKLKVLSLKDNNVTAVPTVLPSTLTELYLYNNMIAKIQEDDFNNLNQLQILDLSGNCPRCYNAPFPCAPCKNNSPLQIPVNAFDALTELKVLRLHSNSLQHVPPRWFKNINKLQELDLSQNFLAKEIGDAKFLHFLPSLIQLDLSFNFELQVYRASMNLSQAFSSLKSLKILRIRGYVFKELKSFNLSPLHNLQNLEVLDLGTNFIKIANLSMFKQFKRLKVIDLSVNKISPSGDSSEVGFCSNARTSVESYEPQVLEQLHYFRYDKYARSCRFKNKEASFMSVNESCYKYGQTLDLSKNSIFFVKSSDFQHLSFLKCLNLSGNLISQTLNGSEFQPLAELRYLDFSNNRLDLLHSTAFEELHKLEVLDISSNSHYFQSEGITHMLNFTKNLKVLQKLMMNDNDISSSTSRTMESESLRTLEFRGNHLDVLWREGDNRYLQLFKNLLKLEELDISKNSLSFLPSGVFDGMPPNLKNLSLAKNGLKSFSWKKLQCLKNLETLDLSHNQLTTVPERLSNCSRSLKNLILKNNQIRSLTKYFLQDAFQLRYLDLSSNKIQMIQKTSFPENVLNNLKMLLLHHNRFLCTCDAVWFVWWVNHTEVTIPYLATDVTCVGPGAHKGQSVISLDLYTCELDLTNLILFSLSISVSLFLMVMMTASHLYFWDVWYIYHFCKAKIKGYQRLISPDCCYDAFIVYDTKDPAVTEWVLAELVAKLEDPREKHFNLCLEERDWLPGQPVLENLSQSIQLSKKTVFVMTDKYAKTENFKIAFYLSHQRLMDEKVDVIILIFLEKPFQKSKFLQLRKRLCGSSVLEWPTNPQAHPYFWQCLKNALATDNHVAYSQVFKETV
Description: as §1, §2, §3, §4, §5, §6

[3] = human PBMCs, co-formulated in the same SNALP, 24 h

ApoB antisense ssRNA: immunostimulatory antisense ssRNA: AUUGGUAUUCAGUGUGAUGACAC (chemistry not given here) [reference compound]
IFN-α production induced by the RNA alone ([1]; human PBMC cultures): induced high levels of IFN-α | IFN-α production induced by ApoB antisense ssRNA in absence of modified ssRNA ([1]; human PBMCs, SNALP, 24 hr): 5000 to 6000 pg/mL

Luc: unmodified Luc sense strand ssRNA: 5′GAUUAUGUCCGGUUAUGUAUU 3′ (sense GAUUAUGUCCGGUUAUGUAUU; RNA, backbone not given here) [reference compound]
immunostimulatory effects (IFN-α induction) of ApoB antisense ssRNA when co-formulated [1, 3]: high levels of IFN-α were still induced

NP1496 UmodS: influenza NP1496 sense strand ssRNA with 2′OMe uridines: GGAmUCmUmUAmUmUmUCmUmUCGGAGUU (sense GGAUCUUAUUUCUUCGGAGUU; sugars from the 5' end rrrmrmmrmmmrmmrrrrrrr, backbone not given here)
IFN-α production induced by the RNA alone ([1]; […]): do not induce measurable IFN-α production | immunostimulatory effects of ApoB antisense ssRNA at molar excess of agonist ([1]; human PBMCs, co-formulated in the same SNALP at 1:1, 1:2, or 1:4 molar ratio (up to 4-fold molar excess of agonist)): antagonized | immunostimulatory effects (IFN-α induction) of ApoB antisense ssRNA when co-formulated [1, 3]: abolished | immunostimulatory effects (IFN-α induction) of ApoB antisense ssRNA when co-formulated ([1]; human PBMCs, co-formulated in the same SNALP, 24 h, listed as NP-mU): abrogated | immunostimulatory effects (IFN-α induction) of ApoB siRNA duplex when co-formulated ([1]; human PBMCs, co-formulated in the same SNALP, equimolar, 24 h): abrogated | IFN-α levels induced by β-gal antisense ssRNA when co-encapsulated ([1]; human PBMCs, 24 h): abrogated

NP1496: unmodified NP1496 sense strand ssRNA: GGAUCUUAUUUCUUCGGAGUU (RNA, backbone not given here) [reference compound]
immunostimulatory effects (IFN-α induction) of ApoB antisense ssRNA when co-formulated [1, 3]: high levels of IFN-α were still induced

NP-mC: 2′OMe-cytidine RNA: GGAUmCUUAUUUmCUUmCGGAGUU (GGAUCUUAUUUCUUCGGAGUU; 2'-O-methyl at C, RNA at AGU, backbone not given here)
immunostimulatory effects (IFN-α induction) of ApoB antisense ssRNA when co-formulated [1, 3]: do not inhibit

polyUmod10: 2′OMe-uridine homopolymer of 10 nucleotides in length (UUUUUUUUUU; all 2'-O-methyl, backbone not given here)
cytokine production from human PBMCs when co-formulated with immunostimulatory RNA ([1]; human PBMCs): significantly reduced cytokine induction, although inhibition with these shorter oligonucleotides was not absolute | IFN-α levels induced by β-gal antisense ssRNA when co-encapsulated ([1]; human PBMCs, 24 h): significantly reduced | IL-6 levels induced by β-gal antisense ssRNA when co-encapsulated ([1]; human PBMCs, 24 h): significantly reduced | IFN-α levels induced by β-gal antisense ssRNA when co-encapsulated ([1]; human PBMCs, 24 h, listed as (mU)10): inhibit

polyUmod15: 2′OMe-uridine homopolymer of 15 nucleotides in length (UUUUUUUUUUUUUUU; all 2'-O-methyl, backbone not given here)
cytokine production from human PBMCs when co-formulated with immunostimulatory RNA ([1]; human PBMCs): equally as effective at inhibiting cytokine production | IFN-α levels induced by β-gal antisense ssRNA when co-encapsulated ([1]; human PBMCs, 24 h): significantly reduced | IL-6 levels induced by β-gal antisense ssRNA when co-encapsulated ([1]; human PBMCs, 24 h): significantly reduced | IFN-α levels induced by β-gal antisense ssRNA when co-encapsulated ([1]; human PBMCs, 24 h, listed as (mU)15): inhibit | IL-6 levels induced by naked loxoribine [2]: inhibited only IFN-α levels | level of IFN-α induced by naked loxoribine [2]: inhibited

β-gal [reference compound]
immunostimulatory effects (IFN-α induction) of ApoB antisense ssRNA when co-formulated [1, 3]: high levels of IFN-α were still induced

βgal-mA: 2′OMe-adenosine modified RNA: CUmACmACmAmAmAUCmAGCGmAUUUU (CUACACAAAUCAGCGAUUUU; 2'-O-methyl at A, RNA at CGU, backbone not given here)
IFN-α induction by NP ssRNA when co-formulated ([1]; human PBMCs, 24 h): inhibits

βgal-mC: 2′OMe-cytidine RNA: mCUAmCAmCAAAUmCAGmCGAUUUUU (CUACACAAAUCAGCGAUUUUU; 2'-O-methyl at C, RNA at AGU, backbone not given here)
IFN-α induction by NP ssRNA when co-formulated ([1]; human PBMCs, 24 h): not | immunostimulatory effects (IFN-α induction) of ApoB antisense ssRNA when co-formulated [1, 3]: do not inhibit

βgal-mG: 2′OMe-guanosine modified RNA: CUACACAAAUCAmGCmGAUUUUU (CUACACAAAUCAGCGAUUUUU; sugars from the 5' end r12 m1 r1 m1 r6, backbone not given here)
IFN-α induction by NP ssRNA when co-formulated ([1]; human PBMCs, 24 h): inhibits

Source: patent publication US20080171716A1, “NUCLEIC ACID MODULATION OF TOLL-LIKE RECEPTOR-MEDIATED IMMUNE STIMULATION” (Protiva Biotherapeutics, Inc., priority 2006, published 2008)
